Source: patent US20260070902A1, “SULFONYL DERIVATIVES AS CCR6 INHIBITORS” (Hoffmann-La Roche Inc., priority 2022, published 2026)

Target: T1, human CCR6 (Homo sapiens, UniProt P51684)
T1 sequence (P51684 1-374): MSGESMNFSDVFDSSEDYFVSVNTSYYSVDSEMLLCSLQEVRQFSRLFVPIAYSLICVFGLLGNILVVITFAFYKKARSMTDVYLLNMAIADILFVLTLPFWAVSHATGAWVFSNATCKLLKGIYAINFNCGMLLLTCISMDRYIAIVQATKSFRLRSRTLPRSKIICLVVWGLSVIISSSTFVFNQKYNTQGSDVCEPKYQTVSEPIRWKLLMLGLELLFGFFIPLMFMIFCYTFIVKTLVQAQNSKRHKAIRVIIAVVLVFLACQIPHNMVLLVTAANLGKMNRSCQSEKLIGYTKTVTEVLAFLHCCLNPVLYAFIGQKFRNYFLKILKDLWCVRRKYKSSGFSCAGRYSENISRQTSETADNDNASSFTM
Experiment: Human CCR6-CRE reporter assay
Format: cell-based
Design: The second construct contained the open reading frame of human CCR6 in the pUNO1 backbone; host or cells: 293FT cells
Details: relative -Log IC50; 293FT cells transfected with human CCR6 and CRE-luciferase reporter; 6 μM Forskolin, 6 nM CCL20; 5 h
Method: Human CCR6-CRE Reporter Assay
293FT cells were transfected with 2 constructs using TransIT-293 (Mirus). The first construct (pGL4.29, Promega) expressed the luciferase reporter gene luc2P in response to the binding of cAMP-induced CREB to the CREelement in its promoter. The second construct contained the open reading frame of human CCR6 in the pUNO1 backbone under the control of an enhanced CMV promoter (InVivoGen). 48 h after transfection, cells were harvested and diluted to 750,000 cells/ml in culture medium (DMEM, 10% FBS, 1× pen/strep (Gibco 15140)). Compounds were 2.5-fold serially diluted in DMSO. Further dilutions were made in assay medium (DMEM, 10% FBS, 1× pen/strep, 6 μM Forskolin, 6 nM CCL20). 4 μl of the compound solution was added to a white MW384 plate, followed by 20 μl of the cell suspension. Final DMSO concentration in the assay was 0.1%. The MW384 plate was placed in an incubator at 37° C., 5% CO2 for 5 h. Luciferase activity was determined by addition of 24 μl of a 2.5× diluted BriteLite luciferase solution (Perkin Elmer), followed by luminescence measurement using a VICTOR Plate reader (Perkin Elmer). […] The relative −Log IC50 was determined with GraphPad Prism 9 using a four-parameter dose-response model.

| IC50 [nM] | Compound |
| --- | --- |
| 501 | Cc1n[nH]c2ccc(-c3ccc(S(=O)(=O)[C@H]4CC[C@@H](Nc5ccc(S(F)(F)(F)(F)F)cc5)CC4)cc3)cc12 [Example 5, 4-(pentafluoro-λ^6-sulfanyl)-N-[cis-4-[4-(3-methyl-2H-indazol-5-yl)benzenesulfonyl]cyclohexyl]aniline] |
| 1260 | N#Cc1c[nH]c2ccc(-c3ccc(S(=O)(=O)[C@H]4CC[C@@H](Nc5ccc(S(F)(F)(F)(F)F)cc5)CC4)cc3)cc12 [Example 8, 5-(4-{[cis-4-{[4-(pentafluoro-λ^6-sulfanyl)phenyl]Amino}cyclohexyl]sulfonyl}phenyl)-1H-indole-3-carbonitrile] |
| 794 | N#Cc1cnc2ccc(-c3ccc(S(=O)(=O)[C@H]4CC[C@@H](Nc5ccc(S(F)(F)(F)(F)F)cc5)CC4)cc3)cn12 [Example 17, 6-(4-{[cis-4-{[4-(pentafluoro-λ^6-sulfanyl)phenyl]Amino}cyclohexyl]sulfonyl}phenyl)imidazo[1,2-a]pyridine-3-carbonitrile] |
| 63.1 | O=S(=O)(c1ccc(-c2ccc3nnc(C4CCCC4)n3c2)cc1)N1CCC(Nc2ccc(S(F)(F)(F)(F)F)cc2)CC1 [Example 31, 1-(4-{3-cyclopentyl-[1,2,4]triazolo[4,3-a]pyridin-6-yl}benzenesulfonyl)-N-[4-(pentafluoro-λ^6-sulfanyl)phenyl]piperidin-4-amine] |
| 1580 | CN(C)C(=O)c1ccc(-c2ccc(S(=O)(=O)[C@H]3CC[C@@H](Nc4ccc(S(F)(F)(F)(F)F)cc4)CC3)cc2)nc1 [Example 45, N,N-dimethyl-6-(4-{[cis-4-{[4-(pentafluoro-λ^6-sulfanyl)phenyl]Amino}cyclohexyl]sulfonyl}phenyl)pyridine-3-carboxamide] |
| 251 | CN(C)C(=O)c1ccc(-c2ccc(S(=O)(=O)[C@H]3CC[C@H](Nc4ccc(S(F)(F)(F)(F)F)cc4)CC3)cc2)nc1 [Example 46, N,N-dimethyl-6-(4-{[trans-4-{[4-(pentafluoro-λ^6-sulfanyl)phenyl]Amino}cyclohexyl]sulfonyl}phenyl)pyridine-3-carboxamide] |
| 39.8 | O=c1cc(-c2ccc(S(=O)(=O)[C@H]3CC[C@H](Nc4ccc(S(F)(F)(F)(F)F)cc4)CC3)cc2)cc[nH]1 [Example 52, 4-(4-{[trans-4-{[4-(pentafluoro-λ^6-sulfanyl)phenyl]Amino}cyclohexyl]sulfonyl}phenyl)-1,2-dihydropyridin-2-one] |
| 79.4 | O=C1Cc2ccc(-c3ccc(S(=O)(=O)[C@H]4CC[C@H](Nc5ccc(S(F)(F)(F)(F)F)cc5)CC4)cc3)cc2CN1 [Example 53, 7-(4-{[trans-4-{[4-(pentafluoro-λ^6-sulfanyl)phenyl]Amino}cyclohexyl]sulfonyl}phenyl)-1,2,3,4-tetrahydroisoquinolin-3-one] |
| 50.1 | O=C1Cc2cc(-c3ccc(S(=O)(=O)[C@H]4CC[C@H](Nc5ccc(S(F)(F)(F)(F)F)cc5)CC4)cc3)ccc2CN1 [Example 54, 6-(4-{[trans-4-{[4-(pentafluoro-λ^6-sulfanyl)phenyl]Amino}cyclohexyl]sulfonyl}phenyl)-1,2,3,4-tetrahydroisoquinolin-3-one] |
| 31.6 | O=c1[nH]cnn2cc(-c3ccc(S(=O)(=O)[C@H]4CC[C@H](Nc5ccc(S(F)(F)(F)(F)F)cc5)CC4)cc3)cc12 [Example 55, 6-(4-{[trans-4-{[4-(pentafluoro-λ^6-sulfanyl)phenyl]Amino}cyclohexyl]sulfonyl}phenyl)-3H,4H-pyrrolo[2,1-f][1,2,4]triazin-4-one] |
| 200 | CP(C)(=O)c1ccc(-c2ccc(S(=O)(=O)[C@H]3CC[C@H](Nc4ccc(S(F)(F)(F)(F)F)cc4)CC3)cc2)cc1 [Example 57, 4-(pentafluoro-λ^6-sulfanyl)-N-[trans-4-{[4′-(dimethylphosphoryl)-[1,1′-biphenyl]-4-yl]sulfonyl}cyclohexyl]aniline] |
| 398 | NC(=O)c1ccc(-c2ccc(S(=O)(=O)[C@H]3CC[C@H](Nc4ccc(S(F)(F)(F)(F)F)cc4)CC3)cc2)nn1 [Example 62, 6-(4-{[trans-4-{[4-(pentafluoro-λ^6-sulfanyl)phenyl]Amino}cyclohexyl]sulfonyl}phenyl)pyridazine-3-carboxamide] |
| 50.1 | Cc1cc(-c2ccc(S(=O)(=O)[C@H]3CC[C@H](Nc4ccc(S(F)(F)(F)(F)F)cc4)CC3)cc2)cn2c(C(C)C)cnc12 [Example 64, 4-(pentafluoro-λ^6-sulfanyl)-N-[trans-4-{4-[8-methyl-3-(propan-2-yl)imidazo[1,2-a]pyridin-6-yl]benzenesulfonyl}cyclohexyl]aniline] |
| 39.8 | O=C1Nc2ccc(-c3ccc(S(=O)(=O)[C@H]4CC[C@H](Nc5ccc(S(F)(F)(F)(F)F)cc5)CC4)cc3)cc2C12CC2 [Example 65, 5′-(4-{[trans-4-{[4-(pentafluoro-λ^6-sulfanyl)phenyl]amino}cyclohexyl]sulfonyl}phenyl)-1′,2′-dihydrospiro[cyclopropane-1,3′-indol]-2′-one] |
| 631 | Cc1cnc2ccc(-c3ccc(S(=O)(=O)N4CCC(Nc5ccc(S(F)(F)(F)(F)F)cc5)CC4)c(F)c3)cn12 [Example 67, 1-(2-fluoro-4-{3-methylimidazo[1,2-a]pyridin-6-yl}benzenesulfonyl)-N-[4-(pentafluoro-λ^6-sulfanyl)phenyl]piperidin-4-amine] |
| 1000 | Cc1cnc2ccc(-c3ccc(S(=O)(=O)N4CCC(Nc5ccc(S(F)(F)(F)(F)F)cc5)CC4)cc3F)cn12 [Example 68, 1-(3-fluoro-4-{3-methylimidazo[1,2-a]pyridin-6-yl}benzenesulfonyl)-N-[4-(pentafluoro-λ^6-sulfanyl)phenyl]piperidin-4-amine] |
| 1260 | Cc1cnc2ccc(-c3ccc(S(=O)(=O)N4CCC(Nc5ccc(S(F)(F)(F)(F)F)cc5)CC4)nc3)cn12 [Example 70, 1-[(5-{3-methylimidazo[1,2-a]pyridin-6-yl}pyridin-2-yl)sulfonyl]-N-[4-(pentafluoro-λ^6-sulfanyl)phenyl]piperidin-4-amine] |
| 1000 | N#Cc1cnc2ccc(-c3ccc(S(=O)(=O)N4CCC(Nc5ccc(S(F)(F)(F)(F)F)cc5)CC4)cc3F)cn12 [Example 71, 6-{2-fluoro-4-[(4-{[4-(pentafluoro-λ^6-sulfanyl)phenyl]Amino}piperidin-1-yl)sulfonyl]phenyl}imidazo[1,2-a]pyridine-3-carbonitrile] |
| 1580 | O=S(=O)(c1ccc(-c2ccc3nccn3c2)c(F)c1)N1CCC(Nc2ccc(S(F)(F)(F)(F)F)cc2)CC1 [Example 72, 1-(3-fluoro-4-{imidazo[1,2-a]pyridin-6-yl}benzenesulfonyl)-N-[4-(pentafluoro-λ^6-sulfanyl)phenyl]piperidin-4-amine] |
| 1000 | O=S(=O)(c1ccc(-c2ccc3nccn3c2)cn1)N1CCC(Nc2ccc(S(F)(F)(F)(F)F)cc2)CC1 [Example 75, 1-[(5-{imidazo[1,2-a]pyridin-6-yl}pyridin-2-yl)sulfonyl]-N-[4-(pentafluoro-λ^6-sulfanyl)phenyl]piperidin-4-amine] |
| 1580 | N#Cc1cnc2ccc(-c3ccc(S(=O)(=O)N4CCC(Nc5ccc(S(F)(F)(F)(F)F)cc5)CC4)nc3)cn12 [Example 78, 6-{6-[(4-{[4-(pentafluoro-λ^6-sulfanyl)phenyl]Amino}piperidin-1-yl)sulfonyl]pyridin-3-yl}imidazo[1,2-a]pyridine-3-carbonitrile] |
| 1580 | O=S(=O)(c1ccc(-c2ccc3nccn3c2)cc1Cl)N1CCC(Nc2ccc(S(F)(F)(F)(F)F)cc2)CC1 [Example 79, 1-(2-chloro-4-{imidazo[1,2-a]pyridin-6-yl}benzenesulfonyl)-N-[4-(pentafluoro-λ^6-sulfanyl)phenyl]piperidin-4-amine] |
| 2000 | N#Cc1cnc2ccc(-c3ccc(S(=O)(=O)N4CCC(Nc5ccc(S(F)(F)(F)(F)F)cc5)CC4)c(Cl)c3)cn12 [Example 80, 6-{3-chloro-4-[(4-{[4-(pentafluoro-λ^6-sulfanyl)phenyl]Amino}piperidin-1-yl)sulfonyl]phenyl}imidazo[1,2-a]pyridine-3-carbonitrile] |
| 794 | N=S(=O)(c1ccc(-c2ccc3nccn3c2)cc1)[C@H]1CC[C@@H](Nc2ccc(S(F)(F)(F)(F)F)cc2)CC1 (stereo partly drawn) [Example 88, (4-{imidazo[1,2-a]pyridin-6-yl}phenyl)[cis-4-{[4-(pentafluoro-λ^6-sulfanyl)phenyl]Amino}cyclohexyl](imino)-λ^6-sulfanone] |
